Assay results from patent US12570675B2, “Boronic acid compounds” (LG CHEM, LTD., priority 2020, dated 2026).

The compounds below were run against Proteasome chymotrypsin-like activity (S26 protein from RPMI8226 cells) (Homo sapiens, UniProt P28074). Settings: S26 protein from RPMI8226 cell extract 2 ug/well, substrate 20 uM, 37° C., 90 minutes; read-out: Proteasome chymotrypsin-like activity inhibition IC50.
Assay type: biochemical
Method: The abilities to inhibit the proteasome activity of the compounds described in the Examples of the present invention and boronic acid drugs were evaluated as follows.
RPMI8226 cells, which is a multiple myeloma cell line, were cultured and then separated by a centrifuge, and washed twice with phosphate buffered saline (PBS). 20 mM of a tris-HCl (pH 8.0) buffer solution was added to the washed cells, and the cells were disrupted by a homogenizer and centrifuged to obtain S26 protein from the supernatant. Suc-Leu-Leu-Val-Tyr-AMC, for a fluorogenic substrate for the chymotrypsin-like activity of the proteasome, and Z-Leu-Leu-Glu-AMC, for a fluorogenic substrate for the caspase-like activity, were purchased from Calbiochem, EMD Millipore and used. Into each well of a 96-well plate (opaque, black round bottom), 20 ul of the S26 protein (final RPMI8226 cell extract concentration: 2 ug/well), 10 ul of S26 proteasome inhibitor serially diluted from 10 uM (final DMSO concentration: 0.5%), and 20 ul of the fluorogenic substrate for the proteasome chymotrypsin-like or caspase-like activity (final concentration: 20 uM) were added and mixed and allowed to react in a 37° C. incubator for 90 minutes. The fluorescence of the fluorogenic substrate was measured by FlexStation II Fluorometer (Molecular Devices). The fluorescence inhibited by the compound diluted at each concentration was measured as the relative percentage value for the amount obtained from the treatment only with the S26 protein and the fluorogenic substrate. IC50 (inhibitory concentration 50) was expressed in terms of a concentration that inhibits 50% of the maximum fluorescence induced by the fluorogenic substrate.

Proteasome chymotrypsin-like activity (S26 protein from RPMI8226 cells), sequence (P28074 60-263 limits assumed): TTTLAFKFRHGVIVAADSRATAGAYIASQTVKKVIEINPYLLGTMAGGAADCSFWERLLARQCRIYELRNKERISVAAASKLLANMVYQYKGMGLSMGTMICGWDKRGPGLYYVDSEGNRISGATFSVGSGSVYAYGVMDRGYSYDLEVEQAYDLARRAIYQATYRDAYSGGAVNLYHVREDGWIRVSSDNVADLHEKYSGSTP

SMILES	IC50
CC(C)C[C@H](NC(=O)C1(Cc2cscn2)CC(CNC(=O)c2cccn3ccnc23)=NO1)B(O)O (stereo partly drawn) [Example 150, ((1R)-1-(3-((imidazo[1,2-a]pyridin-8-carboxamido)methyl)-5-(thiazol-4-ylmethyl)-4,5-dihydroisoxazol-5-carboxamido)-3-methylbutyl)boronic acid]	< 10 nM
CC(C)C[C@H](NC(=O)C1CC([C@@H](NC(=O)c2nccc3ccccc23)C(C)C)=NO1)B(O)O (stereo partly drawn) [Example 67, ((1R)-1-(3-((S)-1-(isoquinolin-1-carboxamido)-2-methylpropyl)-4,5-dihydroisoxazol-5-carboxamido)-3-methylbutyl)boronic acid]	< 25 nM
CC(C)C[C@H](NC(=O)C1CC([C@@H](NC(=O)c2cccc3c2CCCC3)C(C)C)=NO1)B(O)O (stereo partly drawn) [Example 66, ((1R)-3-methyl-1-(3-((S)-2-methyl-1-(5,6,7,8-tetrahydronaphthalen-1-carboxamido)propyl)-4,5-dihydroisoxazol-5-carboxamido)butyl)boronic acid]	< 25 nM
CC(C)C[C@H](NC(=O)C1CC(c2cccc(-c3ccccc3)n2)=NO1)B(O)O (stereo partly drawn) [Example 25, ((1R)-3-methyl-1-(3-(6-phenylpyridin-2-yl)-4,5-dihydroisoxazol-5-carboxamido)butyl)boronic acid]	< 100 nM
CC(C)C[C@H](NC(=O)C1(Cc2ccccc2)CC(CNC(=O)c2cc(C(C)C)on2)=NO1)B(O)O (stereo partly drawn) [Example 182, ((1R)-1-(5-benzyl-3-((5-isopropylisoxazol-3-carboxamido)methyl)-4,5-dihydroisoxazol-5-carboxamido)-3-methylbutyl)boronic acid]	< 10 nM
O=C(NCC1=NOC(Cc2ccccc2)(C(=O)N[C@@H](Cc2ccccc2)B(O)O)C1)c1cccc2ccccc12 (stereo partly drawn) [Example 299, ((1R)-1-(3-((1-naphthamido)methyl)-5-benzyl-4,5-dihydroisoxazol-5-carboxamido)-2-phenylethyl)boronic acid]	< 10 nM
CC(C)C[C@H](NC(=O)C1CC(CCc2ccccc2)=NO1)B(O)O (stereo partly drawn) [Example 11, ((1R)-3-methyl-1-(3-penetyl-4,5-dihydroisoxazol-5-carboxamido)butyl)boronic acid]	< 250 nM
COc1cccc(C(=O)NCC2=NOC(Cc3ccccc3)(C(=O)N[C@@H](Cc3ccccc3)B(O)O)C2)c1 (stereo partly drawn) [Example 285, ((1R)-1-(5-benzyl-3-((3-methoxybenzamido)methyl)-4,5-dihydroisoxazol-5-carboxamido)-2-phenylethyl)boronic acid]	< 10 nM
CC(C)C[C@H](NC(=O)C1CC(c2ccc(-c3ccccn3)cc2)=NO1)B(O)O (stereo partly drawn) [Example 26, ((1R)-3-methyl-1-(3-(4-(pyridin-2-yl)phenyl)-4,5-dihydroisoxazol-5-carboxamido)butyl)boronic acid]	< 50 nM
CC(C)C[C@H](NC(=O)C1CC(c2cccc(-c3ccccn3)c2)=NO1)B(O)O (stereo partly drawn) [Example 34, ((1R)-3-methyl-1-(3-(3-(pyridin-2-yl)phenyl)-4,5-dihydroisoxazol-5-carboxamido)butyl)boronic acid]	< 100 nM
COc1cccc(CC2(C(=O)N[C@@H](CC(C)C)B(O)O)CC(CNC(=O)c3cc(C)nn3C(C)C)=NO2)c1 (stereo partly drawn) [Example 232, ((1R)-1-(3-((1-isopropyl-3-methyl-1H-pyrazol-5-carboxamido)methyl)-5-(3-methoxybenzyl)-4,5-dihydroisoxazol-5-carboxamido)-3-methylbutyl)boronic acid]	< 10 nM
CC(C)C[C@H](NC(=O)C1(Cc2ccccc2)CC(CNC(=O)C2(c3ccccc3)CC2)=NO1)B(O)O (stereo partly drawn) [Example 118, ((1R)-1-(5-benzyl-3-((1-phenylcyclopropan-1-carboxamido)methyl)-4,5-dihydroisoxazol-5-carboxamido)-3-methylbutyl)boronic acid]	< 25 nM
Cc1cccc(CC2(C(=O)N[C@@H](CC(C)C)B(O)O)CC(CNC(=O)c3sc(C)nc3C)=NO2)c1 (stereo partly drawn) [Example 217, ((1R)-1-(3-((2,4-dimethylthiazol-5-carboxamido)methyl)-5-(3-methylbenzyl)-4,5-dihydroisoxazol-5-carboxamido)-3-methylbutyl)boronic acid]	< 10 nM
CC(C)C[C@H](NC(=O)C1CC(c2nccc3ccccc23)=NO1)B(O)O (stereo partly drawn) [Example 12, ((1R)-1-(3-(isoquinolin-1-yl)-4,5-dihydroisoxazol-5-carboxamido)-3-methylbutyl)boronic acid]	< 250 nM
Cc1nc2c(C(=O)NCC3=NOC(Cc4ccccc4)(C(=O)N[C@@H](CC(C)C)B(O)O)C3)cccn2c1Cl (stereo partly drawn) [Example 140, ((1R)-1-(5-benzyl-3-((3-chloro-2-methylimidazo[1,2-a]pyridin-8-carboxamido)methyl)-4,5-dihydroisoxazol-5-carboxamido)-3-methylbutyl)boronic acid]	< 10 nM
CC(C)C[C@H](NC(=O)C1CC(c2cncc(-c3ccccc3)c2)=NO1)B(O)O (stereo partly drawn) [Example 33, ((1R)-3-methyl-1-(3-(5-phenylpyridin-3-yl)-4,5-dihydroisoxazol-5-carboxamido)butyl)boronic acid]	< 100 nM
CC(C)C[C@H](NC(=O)[C@]1(C(C)C)CC(c2nccc3ccccc23)=NO1)B(O)O [Example 13, ((R)-1-((R)-5-isopropyl-3-(isoquinolin-1-yl)-4,5-dihydroisoxazol-5-carboxamido)-3-methylbutyl)boronic acid]	> 1000 nM
Cc1nc(C)c(C(=O)NCC2=NOC(Cc3cccc(Cl)c3)(C(=O)N[C@@H](CC(C)C)B(O)O)C2)s1 (stereo partly drawn) [Example 219, ((1R)-1-(5-(3-chlorobenzyl)-3-((2,4-dimethylthiazol-5-carboxamido)methyl)-4,5-dihydroisoxazol-5-carboxamido)-3-methylbutyl)boronic acid]	< 10 nM
CCOCC1(C(=O)N[C@@H](CC(C)C)B(O)O)CC(CNC(=O)c2nccc3ccccc23)=NO1 (stereo partly drawn) [Example 193, ((1R)-1-(5-(ethoxymethyl)-3-((isoquinolin-1-carboxamido)methyl)-4,5-dihydroisoxazol-5-carboxamido)-3-methylbutyl)boronic acid]	< 10 nM
CC[C@H](NC(=O)C1(Cc2ccccc2)CC(CNC(=O)c2cccc(Cl)n2)=NO1)B(O)O (stereo partly drawn) [Example 318, ((1R)-1-(5-benzyl-3-((6-chloropicolinamido)methyl)-4,5-dihydroisoxazol-5-carboxamido)propyl)boronic acid]	< 25 nM
CC(C)C[C@H](NC(=O)C1CC(c2ccc(Oc3ccccn3)cc2)=NO1)B(O)O (stereo partly drawn) [Example 42, ((1R)-3-methyl-1-(3-(4-(pyridin-2-yloxy)phenyl)-4,5-dihydroisoxazol-5-carboxamido)butyl)boronic acid]	< 250 nM
Cc1cccc(COCC2=NOC(Cc3ccccc3)(C(=O)N[C@@H](Cc3ccccc3)B(O)O)C2)c1 (stereo partly drawn) [Example 271, ((1R)-1-(5-benzyl-3-(((3-methylbenzyl)oxy)methyl)-4,5-dihydroisoxazol-5-carboxamido)-2-phenylethyl)boronic acid]	< 10 nM
CC(C)C[C@H](NC(=O)C1(Cc2ccccc2)CC(COCc2cc(Cl)ccc2Cl)=NO1)B(O)O (stereo partly drawn) [Example 45, ((1R)-1-(5-benzyl-3-(((2,5-dichlorobenzyl)oxy)methyl)-4,5-dihydroisoxazol-5-carboxamido)-3-methylbutyl)boronic acid]	< 10 nM
CC(C)C[C@H](NC(=O)C1(Cn2cccn2)CC(CNC(=O)c2nccc3ccccc23)=NO1)B(O)O (stereo partly drawn) [Example 128, ((1R)-1-(5-((1H-pyrazol-1-yl)methyl)-3-((isoquinolin-1-carboxamido)methyl)-4,5-dihydroisoxazol-5-carboxamido)-3-methylbutyl)boronic acid]	< 10 nM
CC(C)C[C@H](NC(=O)C1CC([C@H](CC(C)C)NC(=O)c2ccccc2)=NO1)B(O)O (stereo partly drawn) [Example 104, ((1R)-1-(3-((S)-1-benzamido-3-methylbutyl)-4,5-dihydroisoxazol-5-carboxamido)-3-methylbutyl)boronic acid]	< 100 nM
CC(C)C[C@H](NC(=O)C1(Cc2ccccc2)CC(CNC(=O)c2ccnc3c2ccn3C)=NO1)B(O)O (stereo partly drawn) [Example 210, ((1R)-1-(5-benzyl-3-((1-methyl-1H-pyrrolo[2,3-b]pyridin-4-carboxamido)methyl)-4,5-dihydroisoxazol-5-carboxamido)-3-methylbutyl)boronic acid]	< 10 nM
Cc1cccc(CC2(C(=O)N[C@@H](CC(C)C)B(O)O)CC(CNC(=O)c3cc(C)nn3C3CCCC3)=NO2)c1 (stereo partly drawn) [Example 243, ((1R)-1-(3-((1-cyclopentyl-3-methyl-1H-pyrazol-5-carboxamido)methyl)-5-(3-methylbenzyl)-4,5-dihydroisoxazol-5-carboxamido)-3-methylbutyl)boronic acid]	< 10 nM
CC(C)C[C@H](NC(=O)C1(Cc2cccc(C(F)(F)F)c2)CC(CNC(=O)c2nccc3ccccc23)=NO1)B(O)O (stereo partly drawn) [Example 215, ((1R)-1-(3-((isoquinolin-1-carboxamido)methyl)-5-(3-(trifluoromethyl)benzyl)-4,5-dihydroisoxazol-5-carboxamido)-3-methylbutyl)boronic acid]	< 10 nM
